{
  "source": "patent US4880941A",
  "about": "“Trittum labelled compound, its preparation and its use in the determination of the affinity of retinoids for their cellular receptor” (priority 1986, dated 1989)",
  "key": {"[1]": {"biological_target": "T1, cRABP (cellular Retinoic Acid-Binding Protein) (Rattus norvegicus, UniProt P62966)", "T1 sequence (P62966 whole entry)": "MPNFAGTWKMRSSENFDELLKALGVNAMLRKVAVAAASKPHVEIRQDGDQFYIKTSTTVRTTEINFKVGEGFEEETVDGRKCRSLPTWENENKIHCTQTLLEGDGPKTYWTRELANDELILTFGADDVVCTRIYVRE", "assay": "Saturation test: fixation of ligand on soluble cRABP of rat testicle homogenate", "set-up": "a homogenate of rat testicles (organ rich in cRABP); from tissue; host or cells: rat testicles (homogenate), inferred from the saturation test", "details": "for nonspecific fixation (% of the total fixation): in the presence of a large excess (1 μM) of retinoic acid, ligand up to 50 nM", "experimental": "The total fixation (nonspecific +specific) (curva a), is obtained by incubation of increasing concentrations (up to a maximum of 50 nM) of the compound of the present invention with a constant quantity (0.3 ml) of a homogenate of rat testicles (organ rich in cRABP). […] An incubation time for 2 hours is necessary for the establishment of equilibrium conditions.\nOnce equilibrium is reached, the cRABP-tritiated ligand complex is separated from the nonlinked ligand by filtration on an exclusion gel Sephadex G25 column (Bio-Rad econo columns, 0.5×20 cm): the complex is eluted (elution peak at 2.5 ml), while the nonlinked ligand is retained in total on the column. A total separation is thus effected between the linked and nonlinked product. The eluation is made directly in the scintillation tubes and the radioactivity is measured by counting.\nOn FIG. 1, there is represented, on the abscissa, the initial concentrations of the ligand being studied, and on the ordinate, the concentrations at equilibrium of the ligand-receptor complex.\nThe difference between curves a (total fixation) and c (nonspecific fixation) gives the curve of specific fixation, curve b. The analysis of this curve provides the dissociation constant at equilibrium, (Kd), which is the concentration of product necessary for 50% saturation of the soluble receptor. This constant is a measure of the affinity of the ligand for its receptor, Kd being inversely proportional to affinity, (the weaker Kd is, the greater is the affinity)."}, "[2]": {"biological_target": "T1, cRABP (cellular Retinoic Acid-Binding Protein)", "assay": "Competition test of cold ligand against radioactive ligand for fixation on cRABP", "method": "These competition tests are carried out in the following manner: a fixed amount of the radioactive ligand (corresponding essentially to the half-saturation of the fixed amount of receptor which will be employed), is mixed with increasing quantities of cold ligand (nonradioactive). The receptor is then added and there is determined the amount of radioactive ligand fixed at equilibrium (in % of initial fixation in the absence of cold ligand, for the amount of receptor considered).\nStarting from the competition curves of FIGS. 2 to 7, there is determined in each case the IC50 (concentration of cold ligand reducing the attachment of 50% of the tritiated ligand). This IC50 value permits the calculation in each case of the dissociation constant at equilibrium (Kd) for the cold ligand."}},
  "data": [
    {"smiles": "[3H]c1cc2c(cc1-c1cc3ccc(C(=O)O)cc3s1)C(C)(C)CCC2(C)C", "note": "[Example 1, 2-(3-^3 H-5,6,7,8-tetrahydro-5,5,8,8-tetramethyl-2-naphthyl)-6-benzo [b] thiophene carboxylic acid]", "values": [
      {"measurement": "nonspecific fixation (character)", "setting": "[1]; in the concentration range employed (up to 50 nM)", "result": "linear and nonsaturable"},
      {"measurement": "nonspecific fixation (% of the total fixation)", "setting": "[1]", "result": "less than 10%"},
      {"measurement": "specific fixation (character)", "setting": "[1]; saturation test, rat testicle homogenate", "result": "saturable and reversible"},
      {"measurement": "Kd", "setting": "[1]; saturation test, rat testicle homogenate, 2 hours incubation, nonlinear regression (Clark equation), read-out: Kd (dissociation constant at equilibrium)", "result": "2.7 ± 0.5", "unit": "nM"}
    ]},
    {"smiles": "CC1(C)CCC(C)(C)c2cc(-c3cc4ccc(C(=O)O)cc4s3)ccc21", "note": "[compound A, 2-(5,6,7,8-tetrahydro-5,5,8,8-tetramethyl-2-naphthyl)-6-benzo [b] thiophene carboxylic acid]", "values": [
      {"measurement": "Kd", "setting": "[2]", "result": 6, "unit": "nM"}
    ]},
    {"smiles": "C/C(=C\\c1ccc(C(=O)O)cc1)c1ccc2c(c1)C(C)(C)CCC2(C)C", "note": "[compound B]", "values": [
      {"measurement": "Kd", "setting": "[2]", "result": 16, "unit": "nM"},
      {"measurement": "Kd", "setting": "[2]; Kd of the cold ligand, radioactive ligand: tritiated retinoic acid, calculated from IC50 of competition curve", "result": 20, "unit": "nM"}
    ]},
    {"smiles": "CC1=C(/C=C/C(C)=C/C=C/C(C)=C/C(=O)O)C(C)(C)CCC1", "note": "[retinoic acid]", "values": [
      {"measurement": "nonspecific fixation (% of the total fixation)", "setting": "[1]", "result": "approximately 25%"}
    ]}
  ]
}
